The structures appear in SMILES notation.

One experiment has as its target T1, mTOR (Homo sapiens, UniProt P42345).
T1 construct: purchased Invitrogen Corporation (Carlsbad/CA, USA) PV4753
As to the kind of experiment: Biochemical assay for m-TOR by TR-FRET. Conditions: 8 μM ATP, 400 nM GFP-4EBP1, 0.5 nM mTOR. Summed up:
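mTOR (0.5 nM) was incubated at rt with ATP (8 μM final) and GFP-4EBP1 (400 nM final) in 50 mM HEPES pH 7.5, 10 mM MnCl2, 50 mM NaCl, 1 mM EGTA, 1 mM DTT. EDTA stop with Tb3+-anti-p4EBP1 [pThr46] antibody (0.5 nM); TR-FRET read 15 min later.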
A general note: Time-resolved FRET reads energy transfer from a long-lived donor to a nearby acceptor.

The test system of experiment [1] is PKB Ser473 phosphorylation in Rat1-myr-HA-p110 delta cells. As to the kind of experiment: Reverse protein array assay, PKB Ser473 phosphorylation in Rat1-myr-p110 delta cells. Conditions: read-out: p-PKB IC50. Format: cell-based. In outline: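 Lysates were arrayed at four dilutions, and phospho-PKB Ser473 was quantified by relative fluorescence signal. They came from Rat1-myr-HA-p110 alpha, beta or delta cells exposed for 30 min at 37 °C to an 8-point compound series with 0.2% DMSO constant.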

In a further experiment the target is T2, PI3K beta (Homo sapiens, UniProt P42338).
T2 construct: for the full-length p110-b subunit are generated and fused by overlapping PCR; p85(iSH2) fusion partner (see partner chain) (N); His tag (C); made in house; host or cells: baculovirus; Tn5 (Trichoplusia ni) or TiniPro insect cells
As to the kind of experiment: PI3K beta kinase assay (Kinase-Glo luminescence). It counts as biochemical. In outline: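 p110β full-length/p85 iSH2 construct (BV-949), 25 nM, with 1 μM ATP and 10 μg/mL phosphatidylinositol in 10 mM Tris pH 7.5, 3 mM MgCl2, 50 mM NaCl, 0.05% CHAPS, 1 mM DTT. 60 min at room temperature; ATP remaining read by Kinase-Glo luminescence. IC50 from 8-point four-parameter logistic fit.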
On the technique in general: In Kinase-Glo more light means more ATP remaining.

T2 sequence (P42338 with tags, fused parts or gaps limits assumed): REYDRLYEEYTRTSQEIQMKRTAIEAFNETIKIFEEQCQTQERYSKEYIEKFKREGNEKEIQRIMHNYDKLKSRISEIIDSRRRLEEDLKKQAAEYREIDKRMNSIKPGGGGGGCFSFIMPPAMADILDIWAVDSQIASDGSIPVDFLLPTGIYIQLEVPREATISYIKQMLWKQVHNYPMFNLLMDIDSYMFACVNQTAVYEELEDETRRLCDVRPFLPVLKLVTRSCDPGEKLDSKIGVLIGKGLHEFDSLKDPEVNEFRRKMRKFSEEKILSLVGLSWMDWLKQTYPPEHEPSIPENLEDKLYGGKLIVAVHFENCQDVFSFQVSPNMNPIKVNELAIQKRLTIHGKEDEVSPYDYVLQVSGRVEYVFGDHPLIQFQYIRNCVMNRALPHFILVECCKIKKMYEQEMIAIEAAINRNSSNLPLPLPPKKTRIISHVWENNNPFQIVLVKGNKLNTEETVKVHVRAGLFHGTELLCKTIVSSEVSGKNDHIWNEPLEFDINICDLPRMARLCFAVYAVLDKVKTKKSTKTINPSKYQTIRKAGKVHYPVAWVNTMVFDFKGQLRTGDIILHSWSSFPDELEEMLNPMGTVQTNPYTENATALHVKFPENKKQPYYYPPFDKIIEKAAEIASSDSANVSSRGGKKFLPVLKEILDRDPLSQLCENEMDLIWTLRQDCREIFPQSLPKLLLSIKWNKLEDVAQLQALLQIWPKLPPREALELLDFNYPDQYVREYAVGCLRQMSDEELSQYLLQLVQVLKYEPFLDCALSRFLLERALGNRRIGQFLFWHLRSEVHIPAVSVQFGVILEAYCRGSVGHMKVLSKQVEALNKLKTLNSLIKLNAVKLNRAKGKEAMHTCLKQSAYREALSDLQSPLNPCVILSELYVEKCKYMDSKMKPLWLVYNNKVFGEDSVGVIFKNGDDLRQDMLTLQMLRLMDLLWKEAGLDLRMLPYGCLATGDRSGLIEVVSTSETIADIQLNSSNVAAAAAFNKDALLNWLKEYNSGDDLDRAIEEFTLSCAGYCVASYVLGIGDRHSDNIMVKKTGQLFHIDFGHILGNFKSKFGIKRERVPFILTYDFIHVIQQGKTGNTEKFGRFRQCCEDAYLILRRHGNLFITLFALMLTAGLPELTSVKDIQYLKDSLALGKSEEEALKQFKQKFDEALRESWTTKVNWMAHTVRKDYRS
T1 sequence (P42345 1360-2549 limits assumed): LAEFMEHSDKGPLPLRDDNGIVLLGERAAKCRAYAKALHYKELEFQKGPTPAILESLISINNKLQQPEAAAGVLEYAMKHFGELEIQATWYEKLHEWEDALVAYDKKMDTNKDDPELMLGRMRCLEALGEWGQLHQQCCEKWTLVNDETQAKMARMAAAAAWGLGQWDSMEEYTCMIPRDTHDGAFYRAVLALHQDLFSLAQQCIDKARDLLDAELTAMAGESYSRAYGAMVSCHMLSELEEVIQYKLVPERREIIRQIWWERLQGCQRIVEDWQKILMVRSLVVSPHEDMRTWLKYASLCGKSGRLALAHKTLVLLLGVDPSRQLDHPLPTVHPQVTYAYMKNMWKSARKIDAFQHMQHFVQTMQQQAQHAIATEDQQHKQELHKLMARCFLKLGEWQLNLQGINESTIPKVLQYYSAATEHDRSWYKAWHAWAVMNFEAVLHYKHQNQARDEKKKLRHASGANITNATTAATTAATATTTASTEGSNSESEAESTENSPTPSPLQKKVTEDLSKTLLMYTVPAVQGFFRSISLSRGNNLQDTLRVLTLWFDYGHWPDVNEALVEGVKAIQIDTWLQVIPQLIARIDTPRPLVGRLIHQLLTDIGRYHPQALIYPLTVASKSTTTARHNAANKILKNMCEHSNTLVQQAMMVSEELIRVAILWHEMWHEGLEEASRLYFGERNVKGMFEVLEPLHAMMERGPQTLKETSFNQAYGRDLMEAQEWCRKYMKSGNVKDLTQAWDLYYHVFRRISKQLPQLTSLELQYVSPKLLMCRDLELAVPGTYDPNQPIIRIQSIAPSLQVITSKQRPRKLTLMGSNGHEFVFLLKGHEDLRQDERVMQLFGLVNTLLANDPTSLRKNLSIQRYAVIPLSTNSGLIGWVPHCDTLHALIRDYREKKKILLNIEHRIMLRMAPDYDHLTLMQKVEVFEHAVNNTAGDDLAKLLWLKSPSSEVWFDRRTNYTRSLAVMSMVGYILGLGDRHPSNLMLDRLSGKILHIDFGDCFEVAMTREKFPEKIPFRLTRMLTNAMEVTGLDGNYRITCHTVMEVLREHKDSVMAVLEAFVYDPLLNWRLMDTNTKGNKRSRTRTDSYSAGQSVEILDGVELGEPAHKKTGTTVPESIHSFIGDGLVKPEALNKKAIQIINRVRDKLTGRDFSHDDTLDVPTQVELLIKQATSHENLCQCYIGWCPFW

One may read the IC50 as the concentration that inhibits the measured activity by half. Turning to `CCOc1ccc(-c2ccc3ncc4c(c3c2)n(-c2cn(CC)nc2C)c(=O)n4C)cc1OCC` [Example 27.1, 8-(3,4-Diethoxy-phenyl)-1-(1-ethyl-3-methyl-1H-pyrazol-4-yl)-3-methyl-1,3-dihydro-imidazo[4,5-c]quinolin-2-one], the IC50 came out at 49 nM on mTOR, 56 nM in experiment [1] and 122 nM at PI3K beta.

Take `Cc1nn(C)cc1-n1c(=O)n(C)c2cnc3ccc(-c4cncc(C(C)(C)O)c4)cc3c21` [Example 215.2, 1-(1,3-Dimethyl-1H-pyrazol-4-yl)-8-[5-(1-hydroxy-1-methyl-ethyl)-pyridin-3-yl]-3-methyl-1,3-dihydro-imidazo[4,5-c]quinolin-2-one]: the IC50 is 9 nM on mTOR, 178 nM in experiment [1] and 10 nM at PI3K beta.

In the case of `COc1ncc(-c2ccc3ncc4c(c3c2)n(-c2cn(C)nc2C)c(=O)n4C)cc1[N+](=O)[O-]` [Example 66, 1-(1,3-dimethyl-1H-pyrazol-4-yl)-8-(6-methoxy-5-nitro-pyridin-3-yl)-3-methyl-1,3-dihydro-imidazo[4,5-c]quinolin-2-one], the IC50 on mTOR was 207 nM; in experiment [1], 176 nM; at PI3K beta, 56 nM.

Take `COCCOc1ccc(-c2ccc3ncc4c(c3c2)n(-c2cn(C)nc2C)c(=O)n4C)cn1` [Example 18, 1-(1,3-Dimethyl-1H-pyrazol-4-yl)-8-[6-(2-methoxy-ethoxy)-pyridin-3-yl]-3-methyl-1,3-dihydro-imidazo[4,5-c]quinolin-2-one]: the figures for the IC50 (at mTOR; in experiment [1]; on PI3K beta) were 123 nM, 314 nM and 252 nM, respectively.

For `CCOc1ccc(-c2ccc3ncc4[nH]c(=O)n(-c5cn(C)nc5C)c4c3c2)cn1` [Example 110, 1-(1,3-Dimethyl-1H-pyrazol-4-yl)-8-(6-ethoxy-pyridin-3-yl)-1,3-dihydro-imidazo[4,5-c]quinolin-2-one], the 50% inhibitory concentration (IC50) on mTOR came out at 14 nM; in experiment [1], 196 nM; on PI3K beta, 137 nM.

Regarding `Cc1nn(C)cc1-n1c(=O)n(C)c2cnc3ccc(-c4ccc(CO)nc4)cc3c21` [Example 16.2, 1-(1,3-Dimethyl-1H-pyrazol-4-yl)-8-(6-hydroxymethyl-pyridin-3-yl)-3-methyl-1,3-dihydro-imidazo[4,5-c]quinolin-2-one], the figures for the IC50 (on mTOR; in experiment [1]; on PI3K beta) were 23 nM, 151 nM and 171 nM, respectively.

As for `CCn1cc(-n2c(=O)n(C)c3cnc4ccc(-c5cnc(N(C)C)nc5)cc4c32)c(C)n1` [Example 6.4, 8-(2-Dimethylamino-pyrimidin-5-yl)-1-(1-ethyl-3-methyl-1H-pyrazol-4-yl)-3-methyl-1,3-dihydro-imidazo[4,5-c]quinolin-2-one], the IC50 was 33 nM on mTOR, 62 nM in experiment [1] and 495 nM at PI3K beta.

Consider `CCOc1cc(-c2ccc3ncc4c(c3c2)n(-c2c(C)nn(C)c2C)c(=O)n4C)ccc1OC` [Example 28.2, 8-(3-Ethoxy-4-methoxy-phenyl)-3-methyl-1-(1,3,5-trimethyl-1H-pyrazol-4-yl)-1,3-dihydro-imidazo[4,5-c]quinolin-2-one], for which the IC50 came to 549 nM at mTOR, 212 nM in experiment [1] and 132 nM at PI3K beta.

Consider `Cc1ncc(-c2ccc3ncc4c(c3c2)n(-c2cn(C)nc2C)c(=O)n4C)cc1N(C)C` [Example 164, 8-(5-Dimethylamino-6-methyl-pyridin-3-yl)-1-(1,3-dimethyl-1H-pyrazol-4-yl)-3-methyl-1,3-dihydro-imidazo[4,5-c]quinolin-2-one], for which the IC50 on mTOR is below 3 nM; in experiment [1], 7 nM; on PI3K beta, 11 nM.

With `Cc1nn(C)cc1-n1c(=O)n(C)c2cnc3ccc(-c4ccccc4)cc3c21` [Example 37.1, 1-(1,3-Dimethyl-1H-pyrazol-4-yl)-3-methyl-8-phenyl-1,3-dihydro-imidazo[4,5-c]quinolin-2-one], the IC50 at mTOR came to 213 nM; in experiment [1] it was 219 nM; at PI3K beta, 970 nM.

As for `CCNc1cc(-c2ccc3ncc4c(c3c2)n(-c2c(C)nn(C)c2C)c(=O)n4C)cnc1F` [Example 154.1, 8-(5-Ethylamino-6-fluoro-pyridin-3-yl)-3-methyl-1-(1,3,5-trimethyl-1H-pyrazol-4-yl)-1,3-dihydro-imidazo[4,5-c]quinolin-2-one], the results for the IC50 (at mTOR; in experiment [1]; on PI3K beta) were 619 nM, 141 nM and 98 nM, respectively.

Regarding `CNc1ncc(-c2ccc3ncc4c(c3c2)n(-c2cn(C)nc2C)c(=O)n4C)cc1F` [Example 141.2, 1-(1,3-Dimethyl-1H-pyrazol-4-yl)-8-(5-fluoro-6-methylamino-pyridin-3-yl)-3-methyl-1,3-dihydro-imidazo[4,5-c]quinolin-2-one], the half-maximal inhibitory concentration (IC50) on mTOR was determined as 7 nM; in experiment [1], 21 nM; at PI3K beta, 142 nM.

Take `[2H]C([2H])([2H])OCc1ncc(-c2ccc3ncc4c(c3c2)n(-c2cn(C)nc2Cl)c(=O)n4C)cc1OC` [Example 199, 1-(3-Chloro-1-methyl-1H-pyrazol-4-yl)-8-(5-methoxy-6-trideuteromethoxymethyl-pyridin-3-yl)-3-methyl-1,3-dihydro-imidazo[4,5-c]quinolin-2-one]: the 50% inhibitory concentration (IC50) came to 12 nM on mTOR, 29 nM in experiment [1] and 27 nM at PI3K beta.

For `COc1ccc(-c2ccc3ncc4c(c3c2)n(-c2ccnn2C)c(=O)n4C)cc1OC` [Example 1.3, 8-(3,4-Dimethoxy-phenyl)-3-methyl-1-(2-methyl-2H-pyrazol-3-yl)-1,3-dihydro-imidazo[4,5-c]quinolin-2-one], the IC50 on mTOR was found to be 132 nM; in experiment [1] it was 140 nM; at PI3K beta it was 129 nM.

`CCOc1ccc(-c2ccc3ncc4c(c3c2)n(-c2cn(C)nc2C)c(=O)n4C)cc1OC` [Example 29.3, 1-(1,3-Dimethyl-1H-pyrazol-4-yl)-8-(4-ethoxy-3-methoxy-phenyl)-3-methyl-1,3-dihydro-imidazo[4,5-c]quinolin-2-one]: the IC50 on mTOR was determined as 7 nM; in experiment [1], 38 nM; on PI3K beta, 144 nM.

With `CCNc1ncc(-c2ccc3ncc4c(c3c2)n(-c2cn(C)nc2C)c(=O)n4C)cc1COCC` [Example 167, 1-(1,3-Dimethyl-1H-pyrazol-4-yl)-8-(5-ethoxymethyl-6-ethylamino-pyridin-3-yl)-3-methyl-1,3-dihydro-imidazo[4,5-c]quinolin-2-one], the figures for the IC50 (on mTOR; in experiment [1]; on PI3K beta) were 58 nM, 91 nM and 84 nM, respectively.

As to `CCOc1cc(-c2ccc3ncc4c(c3c2)n(-c2cn(C)nc2C)c(=O)n4C)ccc1OC` [Example 28.3, 1-(1,3-Dimethyl-1H-pyrazo1-4-yl)-8-(3-ethoxy-4-methoxy-phenyl)-3-methyl-1,3-dihydro-imidazo[4,5-c]quinolin-2-one], the IC50 was 13 nM at mTOR, 24 nM in experiment [1] and 31 nM at PI3K beta.

On to `CNc1ncc(-c2ccc3ncc4c(c3c2)n(-c2c(C)nn(C)c2C)c(=O)n4C)cc1Cl` [Example 146.4, 8-(5-Chloro-6-methylamino-pyridin-3-yl)-3-methyl-1-(1,3,5-trimethyl-1H-pyrazol-4-yl)-1,3-dihydro-imidazo[4,5-c]quinolin-2-one], for which the 50% inhibitory concentration (IC50) at mTOR was 309 nM; in experiment [1], 133 nM; on PI3K beta, 176 nM.

With `COc1ncc(-c2ccc3ncc4c(c3c2)n(-c2cn(C)nc2C)c(=O)n4C)cc1NC(C)=O` [Example 64, N-{5-[1-(1,3-Dimethyl-1H-pyrazol-4-yl)-3-methyl-2-oxo-2,3-dihydro-1H-imidazo[4,5-c]quinolin-8-yl]-2-methoxy-pyridin-3-yl}-acetamide], the IC50 amounted to 30 nM on mTOR, 157 nM in experiment [1] and 322 nM on PI3K beta.

For the compound `Cc1nn(C)cc1-n1c(=O)n(C)c2cnc3ccc(-c4cccc(S(C)(=O)=O)c4)cc3c21` [Example 40, 1-(1,3-Dimethyl-1H-pyrazol-4-yl)-8-(3-methanesulfonyl-phenyl)-3-methyl-1,3-dihydro-imidazo[4,5-c]quinolin-2-one], the IC50 stood at 71 nM at mTOR, 138 nM in experiment [1] and 34 nM at PI3K beta.

As to `Cc1nn(C)cc1-n1c(=O)n(C)c2cnc3ccc(-c4cncc(N(C)S(C)(=O)=O)c4)cc3c21` [Example 121, N-{5-[1-(1,3-Dimethyl-1H-pyrazol-4-yl)-3-methyl-2-oxo-2,3-dihydro-1H-imidazo[4,5-c]quinolin-8-yl]-pyridin-3-yl}-N-methyl-methanesulfonamide], the figures for the IC50 (on mTOR; in experiment [1]; on PI3K beta) were 91 nM, 341 nM and 93 nM, respectively.

Regarding `COc1cc(-c2ccc3ncc4c(c3c2)n(-c2cn(C)nc2C)c(=O)n4C)cnc1CO` [Example 193, 1-(1,3-Dimethyl-1H-pyrazol-4-yl)-8-(6-hydroxymethyl-5-methoxy-pyridin-3-yl)-3-methyl-1,3-dihydro-imidazo[4,5-c]quinolin-2-one], the results for the IC50 (at mTOR; in experiment [1]; at PI3K beta) were 21 nM, 101 nM and 50 nM, respectively.

Values taken from patent US20140005163A1 (NOVARTIS AG, priority 2010, published 2014).
